Measurements as given in ChEMBL document CHEMBL1201862, “PubChem BioAssay data set” (2004).
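In this assay, cells in 96-well plates receive the compound at five concentrations for 48 hours. Endpoints are linearly interpolated between the surrounding concentrations. At the GI50, growth is halved.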 The source made the active and inactive calls. No stated cut-off is given here; in the data, active = GI50 up to about 1.1 µM and inactive = higher.

Assays:
Assay in all cases: NCI-60 cell line screen, 48 h
[1] = test system: 786-0
[2] = test system: A498
[3] = test system: A549
[4] = test system: ACHN
[5] = test system: BT-549
[6] = test system: CAKI-1
[7] = test system: CCRF-CEM
[8] = test system: COLO 205
[9] = test system: EKVX
[10] = test system: HCC 2998
[11] = test system: HCT-116
[12] = test system: HCT-15
[13] = test system: HOP-62
[14] = test system: HOP-92
[15] = test system: HT-29
[16] = test system: Hs-578T
[17] = test system: IGROV-1
[18] = test system: K562
[19] = test system: KM12
[20] = test system: LOX IMVI
[21] = test system: M14
[22] = test system: MDA-MB-231
[23] = test system: MDA-MB-435
[24] = test system: MDA-N
[25] = test system: MOLT-4
[26] = test system: Malme-3M
[27] = test system: NCI-H226
[28] = test system: NCI-H23
[29] = test system: NCI-H460
[30] = test system: NCI-H522
[31] = test system: NCI/ADR-RES
[32] = test system: OVCAR-3
[33] = test system: OVCAR-4
[34] = test system: OVCAR-5
[35] = test system: OVCAR-8
[36] = test system: PC-3
[37] = test system: RPMI-8226
[38] = test system: RXF 393
[39] = test system: SF-268
[40] = test system: SF-295
[41] = test system: SF-539
[42] = test system: SK-MEL-28
[43] = test system: SK-MEL-2
[44] = test system: SK-MEL-5
[45] = test system: SK-OV-3
[46] = test system: SN12C
[47] = test system: SNB-19
[48] = test system: SNB-75
[49] = test system: SR
[50] = test system: SW-620
[51] = test system: T47D
[52] = test system: TK-10
[53] = test system: U-251
[54] = test system: UACC-257
[55] = test system: UACC-62
[56] = test system: UO-31
[57] = test system: HL-60
[58] = test system: MCF7

Measured: GI50

Cc1ccc(Nc2cc(=O)[nH]c(=O)[nH]2)cc1CS
> 100 µM: [12]
inactive: [1] > 100 µM | [2] > 100 µM | [3] > 100 µM | [4] 77.4 µM | [5] 58.1 µM | [6] > 100 µM | [7] > 100 µM | [8] > 100 µM | [9] > 100 µM | [10] > 100 µM | [11] > 100 µM | [13] > 100 µM | [14] > 100 µM | [15] > 100 µM | [16] > 100 µM | [17] > 100 µM | [18] > 100 µM | [19] > 100 µM | [20] > 100 µM | [21] > 100 µM | [22] > 100 µM | [23] > 100 µM | [24] > 100 µM | [25] > 100 µM | [26] > 100 µM | [27] > 100 µM | [28] > 100 µM | [29] > 100 µM | [30] > 100 µM | [31] > 100 µM | [32] > 100 µM | [33] > 100 µM | [34] > 100 µM | [35] > 100 µM | [36] > 100 µM | [37] > 100 µM | [38] 89.9 µM | [39] 61.4 µM | [40] > 100 µM | [41] > 100 µM | [42] > 100 µM | [43] > 100 µM | [44] > 100 µM | [45] > 100 µM | [46] > 100 µM | [47] > 100 µM | [48] > 100 µM | [49] > 100 µM | [50] > 100 µM | [51] > 100 µM | [52] > 100 µM | [53] > 100 µM | [54] > 100 µM | [55] > 100 µM | [56] > 100 µM

Nc1ncnc2c1ncn2[C@@H]1C[C@H]1CO
inactive: [1] > 100 µM | [2] > 100 µM | [3] > 100 µM | [4] > 100 µM | [5] > 10 µM | [7] > 100 µM | [9] > 100 µM | [10] > 100 µM | [11] > 100 µM | [57] > 100 µM | [13] > 100 µM | [15] > 100 µM | [16] > 100 µM | [18] > 100 µM | [19] > 100 µM | [20] > 100 µM | [21] > 100 µM | [58] > 100 µM | [22] > 100 µM | [23] > 10 µM | [24] > 100 µM | [25] > 100 µM | [26] > 100 µM | [27] > 100 µM | [28] > 100 µM | [29] > 100 µM | [30] > 100 µM | [31] > 100 µM | [32] 42 µM | [34] > 100 µM | [35] > 100 µM | [36] > 100 µM | [37] > 100 µM | [40] > 100 µM | [41] > 100 µM | [43] > 100 µM | [46] > 100 µM | [47] > 100 µM | [49] > 100 µM | [50] > 100 µM | [51] > 100 µM | [53] > 100 µM | [54] > 100 µM | [56] > 100 µM
> 100 µM: [12]

CN1C(=O)C(=CNc2ccccc2Cl)C(=O)N(C)C1=O
17.9 µM: [12]
inactive: [1] 18.5 µM | [2] > 100 µM | [3] 21.7 µM | [4] 24.5 µM | [5] > 100 µM | [6] > 100 µM | [7] 14.6 µM | [8] > 100 µM | [9] > 100 µM | [10] 18.7 µM | [11] 18 µM | [13] 19.8 µM | [14] > 100 µM | [15] > 100 µM | [16] > 100 µM | [17] > 100 µM | [18] 22.2 µM | [19] > 100 µM | [20] 15.3 µM | [21] 21.9 µM | [58] 24 µM | [22] > 100 µM | [23] > 100 µM | [24] > 100 µM | [25] 22.6 µM | [26] > 100 µM | [27] > 100 µM | [28] > 100 µM | [29] 15.5 µM | [30] > 100 µM | [31] > 100 µM | [32] 15.2 µM | [33] 18.3 µM | [34] 24.8 µM | [35] > 100 µM | [36] 20.2 µM | [37] 16.9 µM | [38] 15.1 µM | [39] > 100 µM | [40] 17.7 µM | [41] 20.6 µM | [43] 19.2 µM | [44] > 100 µM | [45] 40.8 µM | [46] > 100 µM | [47] 23.8 µM | [48] > 100 µM | [49] 19.4 µM | [50] > 100 µM | [51] 20.1 µM | [52] > 100 µM | [53] > 100 µM | [54] > 100 µM | [55] > 100 µM | [56] > 100 µM
